{"source": "paper PMC6892276", "about": "(European Journal of Pharmaceutical Sciences, 2019)", "key": {"[1]": {"test_system": "MOLM-13 (human FLT3-ITD positive AML)", "design": "method as in Bavetsias et al., 2012", "conditions": "ref Bavetsias et al., 2012; cited from earlier work"}, "[2]": {"assay": "CLint in mouse liver microsomes", "format": "in vitro ADME", "conditions": "ICR/CD-1, liver microsomes, female, 1 mg/ml, NADPH", "procedure": "(§1) All incubations of subcellular fractions and recombinant enzymes were conducted at 37 °C and 800 rpm using a Hamilton Microlab Star liquid handling workstation (Hamilton Robotics (Bonaduz, Switzerland)).\n(§2) Prior to initiation of the reaction by the addition of NADPH (final concentration 1 mM), an aliquot was removed from each incubation and quenched in ice cold methanol containing internal standard (referred to as T0). NADPH was subsequently added to this solution for matrix matching. The remaining reaction (with addition of NADPH) was allowed to proceed for 60 min. At 0.5, 5, 15, 30 and 60 min aliquots were sampled and quenched as above. Incubations were conducted in singlicate; control incubations (substituting PBS for NADPH) were conducted simultaneously.\n(§3) For the purpose of CLint determination, samples were analysed using an Agilent 1290 Infinity ultra high-performance liquid chromatography (UHPLC) system coupled to an Agilent 6520 Quadrupole Time-of-flight mass spectrometer (Agilent Technologies, Stockport, UK). […]\n(§4) In vitro data (parent compound LC-MS response) was fitted to a non-linear single exponential model using the software GraphPad Prism (v6.07, GraphPad Software, Inc., La Jolla, USA) to determine the elimination rate constant (k). CLint in hepatocytes and liver microsomes was calculated using Eqs. […]"}, "[3]": {"test_system": "HCT116 (human colon carcinoma)", "design": "method as in Bavetsias et al., 2012", "conditions": "ref Bavetsias et al., 2012; cited from earlier work"}, "CYP3A4": {"test_system": "CYP3A4", "design": "method as in Bavetsias et al., 2012", "conditions": "ref Bavetsias et al., 2012; read-out: CYP3A4 inhibition IC50; cited from earlier work"}, "[4]": {"assay": "CLint in cryopreserved rat hepatocyte suspensions", "format": "in vitro ADME", "conditions": "Sprague Dawley, pH 7.4, female", "procedure": "(§5) Cells were stored in the vapour phase of liquid nitrogen and thawed as per the supplier's instructions (rapid thawing at 37 °C, followed by centrifugation at 50 ×g for 5 min in thawing medium). Hepatocytes were re-suspended in a small volume of incubation medium (WME buffered with HEPES (final concentration 24 mM) adjusted to pH 7.4). Cell density was estimated using a haemocytometer and light microscope and viability determined according to the trypan blue exclusion method; cells were subsequently diluted to the required concentration in incubation medium. […]\nas §3, §4"}, "[5]": {"assay": "Protein binding in HLM (Rapid Equilibrium Dialysis)", "format": "in vitro ADME", "conditions": "human, liver microsomes, HLM 1 mg/ml, dialysis 4 h at 37 °C, read-out: fumic (fraction unbound in microsomes)", "procedure": "Samples were removed, matrix matched and quenched with methanol containing internal standard; further processing is as described in Section 2.6.\nThe fraction unbound (fu) in HLM/rCYP was calculated using Eq. (5).(5) fu=1/1+1/PARreceiver/PARdonor−1 where PAR = Peak Area Ratio of analyte/internal standard."}, "[6]": {"design": "method as in Bavetsias et al., 2012", "conditions": "rat; ref Bavetsias et al., 2012; cited from earlier work"}, "[7]": {"assay": "CLint in cryopreserved dog hepatocyte suspensions", "format": "in vitro ADME", "conditions": "Beagle", "procedure": "as §5, §3, §4"}, "[8]": {"assay": "CLint in cryopreserved minipig hepatocyte suspensions", "format": "in vitro ADME", "conditions": "Gottingen", "procedure": "as §5, §3, §4"}, "rCYP3A4": {"test_system": "rCYP3A4", "assay": "Reaction phenotyping using recombinant CYP, CLint in rCYP3A4", "format": "in vitro ADME, human", "conditions": "scaled with ISEF 1.09 and CYP abundance 137 pmol P450/mg; corrected for fuCYP", "procedure": "as §1\nRecombinant CYP (100 pmol P450/ml) and control bactosome (at an equivalent protein concentration) were prepared in 100 mM KPB. […] The reaction was initiated by the addition of NADPH (final concentration 1 mM) and allowed to proceed for 20 min. At T0 (see Section 2.4.1), 0.5, 5, 10, 15 and 20 min, an aliquot was removed from each incubation and quenched in ice cold methanol containing internal standard.\nCLint in rCYP was calculated using Eq. (3) and scaled to μl/min/mg microsomal protein using Eq. (4).(3) CLintμl/min/pmolP450=V·k/pmol protein (4) CLintμl/min/mgmicrosomal protein=CLintμl/min/pmolP450·ISEF·CYPabundance where ISEF is the Intersystem Extrapolation Factor and CYP abundance is amount of each CYP relative to microsomal protein. For rCYP3A4 an ISEF of 1.09 ([Certara, 2017]) and a CYP abundance of 137 pmol P450/mg microsomal protein ([Certara, 2017]) were used.\n(§6) Unbound CLint (CLint,u) was calculated using Eq. (6).(6) CLint,u=CLint/fu"}, "[9]": {"assay": "CLint in cryopreserved human hepatocyte suspensions", "format": "in vitro ADME", "conditions": "both sexes, pH 7.4, mixed sex", "procedure": "as §5, §3, §4"}, "CYP2A6": {"test_system": "CYP2A6", "design": "method as in Bavetsias et al., 2012", "conditions": "ref Bavetsias et al., 2012; read-out: CYP2A6 inhibition IC50; cited from earlier work"}, "[10]": {"assay": "CLint in human liver microsomes", "format": "in vitro ADME", "conditions": "both sexes, mixed sex, 1 mg/ml, NADPH", "procedure": "as §1, §2, §3, §4, §6"}}}
{"smiles": "Cc1nn(C)cc1-c1nc2c(N3CCN(Cc4ccc(Cl)cc4)CC3)c(Cl)cnc2[nH]1", "note": "[CCT241736, 6-Chloro-7-(4-(4-chlorobenzyl)piperazin-1-yl)-2-(1,3-dimethyl-1Hpyrazol-4-yl)-3H-imidazo[4,5-b] pyridine]", "values": [{"measurement": "anti-proliferative activity", "setting": "[1]", "value": "anti-proliferative activity"}, {"measurement": "microsomal CLint at 1 μM", "setting": "[2]", "value": "53 ± 4.1", "unit": "µL/min/mg"}, {"measurement": "anti-proliferative activity", "setting": "[3]", "value": "anti-proliferative activity"}, {"measurement": "IC50", "setting": "CYP3A4", "value": "> 10", "unit": "µM"}, {"measurement": "hepatocyte CLint at 1 μM", "setting": "[4]", "value": 10, "unit": "µL/min/1e6 cells"}, {"measurement": "fraction unbound at 4 h, 1 μM", "setting": "[5]", "value": 0.0018}, {"measurement": "clearance", "setting": "[6]", "value": 4.57, "unit": "mL/min/kg"}, {"measurement": "hepatocyte CLint at 1 μM", "setting": "[7]; pH 7.4, female", "value": 3.9, "unit": "µL/min/1e6 cells"}, {"measurement": "hepatocyte CLint at 1 μM", "setting": "[7]; pH 7.4, male", "value": 8.4, "unit": "µL/min/1e6 cells"}, {"measurement": "hepatocyte CLint at 1 μM", "setting": "[8]; pH 7.4, female", "value": 3.4, "unit": "µL/min/1e6 cells"}, {"measurement": "hepatocyte CLint at 1 μM", "setting": "[8]; pH 7.4, male", "value": 7, "unit": "µL/min/1e6 cells"}, {"measurement": "scaled CLint,u in rCYP3A4", "setting": "rCYP3A4", "value": "4078 μl/min/mg microsomal protein"}, {"measurement": "hepatocyte CLint at 1 μM", "setting": "[9]", "value": "< 1", "unit": "µL/min/1e6 cells"}, {"measurement": "IC50", "setting": "CYP2A6", "value": "> 10", "unit": "µM"}, {"measurement": "microsomal CLint at 1 μM", "setting": "[10]", "value": "7.8 ± 1", "unit": "µL/min/mg"}]}
